LC50, Activity and TGI data for three compounds are collected here from ChEMBL document CHEMBL1782045, “Discovery, synthesis, and investigation of the antitumor activity of novel piperazinylpyrimidine derivatives” (Eur J Med Chem, 2011).

Where only a bound is given, the exact number is not on record here.

The test system of one data set is OVCAR-3. The experiment in a line: Cytotoxicity against human OVCAR3 cells after 48 hrs by sulforhodamine B assay. It is filed as cell-based. The settings on record: ovcar-3, 48 h.
The target in data set [1] is Platelet-derived growth factor receptor beta (Homo sapiens) (UniProt P09619). Nature of the data set: Binding affinity to human PDGFRB at 10 uM incubated for 1 hr by kinase binding assay relative to untreated control.
Platelet-derived growth factor receptor beta (Homo sapiens), sequence (P09619 whole entry): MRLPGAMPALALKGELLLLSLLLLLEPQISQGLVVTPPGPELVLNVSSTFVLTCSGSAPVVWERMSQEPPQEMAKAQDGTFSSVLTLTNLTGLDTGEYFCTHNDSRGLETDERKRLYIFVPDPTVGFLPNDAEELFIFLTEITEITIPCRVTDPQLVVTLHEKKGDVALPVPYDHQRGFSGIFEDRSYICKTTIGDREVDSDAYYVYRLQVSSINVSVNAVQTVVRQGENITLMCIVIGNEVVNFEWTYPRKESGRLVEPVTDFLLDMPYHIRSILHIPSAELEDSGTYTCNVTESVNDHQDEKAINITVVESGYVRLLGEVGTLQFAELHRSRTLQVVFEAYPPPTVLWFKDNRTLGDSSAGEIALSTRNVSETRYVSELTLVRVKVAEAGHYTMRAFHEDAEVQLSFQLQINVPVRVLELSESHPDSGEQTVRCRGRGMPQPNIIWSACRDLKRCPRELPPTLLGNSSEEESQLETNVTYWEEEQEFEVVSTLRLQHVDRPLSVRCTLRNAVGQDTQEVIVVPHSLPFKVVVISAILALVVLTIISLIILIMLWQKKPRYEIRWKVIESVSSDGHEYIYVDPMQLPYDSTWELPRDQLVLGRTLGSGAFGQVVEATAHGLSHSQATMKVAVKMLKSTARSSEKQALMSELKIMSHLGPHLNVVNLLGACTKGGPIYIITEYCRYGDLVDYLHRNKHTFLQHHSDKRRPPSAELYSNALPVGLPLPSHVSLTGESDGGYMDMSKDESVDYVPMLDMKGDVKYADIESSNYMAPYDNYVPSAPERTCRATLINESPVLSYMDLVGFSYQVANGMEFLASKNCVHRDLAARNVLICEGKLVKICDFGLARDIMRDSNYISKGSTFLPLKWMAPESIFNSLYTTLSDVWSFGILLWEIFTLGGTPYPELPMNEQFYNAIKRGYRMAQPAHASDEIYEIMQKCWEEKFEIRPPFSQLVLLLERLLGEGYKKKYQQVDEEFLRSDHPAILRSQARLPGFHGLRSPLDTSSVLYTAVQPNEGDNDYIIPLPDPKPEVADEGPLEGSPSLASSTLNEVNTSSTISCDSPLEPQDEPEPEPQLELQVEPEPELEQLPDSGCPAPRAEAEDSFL
In another data set the test system is HOP-92. Nature of the data set: Cytotoxicity against human HOP92 cells after 48 hrs by sulforhodamine B assay. It counts as cell-based. As to conditions: hop-92, 48 h. Background: Sulforhodamine B stains cellular protein and so reports cell mass.
A further data set has as its system SF-539. The experiment in a line: Growth inhibition of human SF539 cells after 48 hrs by sulforhodamine B assay. It is filed as functional. As to conditions: SF-539, 48 h.
Another data set relates to IGROV-1. The experiment in a line: Cytotoxicity against human IGROV1 cells after 48 hrs by sulforhodamine B assay. It counts as cell-based. As to conditions: igrov-1, 48 h.
A further data set deals with SN12C. Nature of the data set: Growth inhibition of human SN12C cells after 48 hrs by sulforhodamine B assay. It is filed as functional.
The test system of another data set is K562. Nature of the data set: Cytotoxicity against human K562 cells after 48 hrs by sulforhodamine B assay. It is filed as cell-based. As to conditions: k562, 48 h.
Data set [2] relates to NCI-H226. The experiment in a line: Growth inhibition of human NCI-H226 cells after 48 hrs by sulforhodamine B assay. The settings on record: NCI-H226, 48 h. It is filed as functional.
Data set [3] has as its system T1, Receptor-type tyrosine-protein kinase FLT3 (Homo sapiens), P36888 [D835H].
T1 sequence (whole entry): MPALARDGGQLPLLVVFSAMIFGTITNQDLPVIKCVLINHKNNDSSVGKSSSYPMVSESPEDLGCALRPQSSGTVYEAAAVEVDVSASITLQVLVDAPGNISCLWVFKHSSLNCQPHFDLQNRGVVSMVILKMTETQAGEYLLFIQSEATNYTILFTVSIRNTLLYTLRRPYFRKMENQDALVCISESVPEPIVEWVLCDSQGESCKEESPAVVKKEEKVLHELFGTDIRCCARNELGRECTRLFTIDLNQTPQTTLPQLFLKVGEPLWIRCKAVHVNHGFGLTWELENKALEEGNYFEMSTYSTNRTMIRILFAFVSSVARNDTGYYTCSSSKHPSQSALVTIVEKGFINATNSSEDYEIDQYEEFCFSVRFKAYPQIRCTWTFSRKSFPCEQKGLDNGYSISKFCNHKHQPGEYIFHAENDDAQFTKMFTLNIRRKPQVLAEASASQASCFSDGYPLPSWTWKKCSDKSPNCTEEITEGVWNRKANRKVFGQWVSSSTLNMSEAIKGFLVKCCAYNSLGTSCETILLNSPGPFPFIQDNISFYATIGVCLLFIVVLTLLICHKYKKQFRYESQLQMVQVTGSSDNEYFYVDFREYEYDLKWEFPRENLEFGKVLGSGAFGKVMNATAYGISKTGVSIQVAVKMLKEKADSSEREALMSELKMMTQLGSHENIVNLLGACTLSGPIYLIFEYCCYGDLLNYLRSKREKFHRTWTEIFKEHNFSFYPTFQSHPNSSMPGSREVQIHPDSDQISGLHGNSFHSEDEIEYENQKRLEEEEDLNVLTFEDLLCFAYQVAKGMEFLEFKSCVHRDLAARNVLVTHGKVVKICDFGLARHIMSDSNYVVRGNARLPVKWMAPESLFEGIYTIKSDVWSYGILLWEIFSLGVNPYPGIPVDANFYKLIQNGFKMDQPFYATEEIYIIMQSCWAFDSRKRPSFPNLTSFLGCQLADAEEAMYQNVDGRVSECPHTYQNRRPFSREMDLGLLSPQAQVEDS
Nature of the data set: Binding affinity to human FLT3 D835H mutant at 10 uM incubated for 1 hr by kinase binding assay relative to untreated control.

The next data set deals with COLO 205. The experiment in a line: Growth inhibition of human COLO205 cells after 48 hrs by sulforhodamine B assay. As to conditions: COLO 205, 48 h. It counts as functional.
In data set [4] the test system is NCI-H226. The experiment in a line: Cytotoxicity against human NCI-H226 cells after 48 hrs by sulforhodamine B assay. As to conditions: nci-h226, 48 h. It is filed as cell-based.
In a further data set the test system is NCI-H460. The experiment in a line: Cytotoxicity against human NCI-H460 cells after 48 hrs by sulforhodamine B assay. It counts as cell-based. As to conditions: nci-h460, 48 h.
A further data set deals with SF-268. Nature of the data set: Cytotoxicity against human SF268 cells after 48 hrs by sulforhodamine B assay. It is filed as cell-based. The settings on record: sf-268, 48 h.
The subject of the next data set is EKVX. The experiment in a line: Cytotoxicity against human EKVX cells after 48 hrs by sulforhodamine B assay. It counts as cell-based.
The target of data set [5] is Hepatocyte growth factor receptor (Homo sapiens, UniProt P08581). The experiment in a line: Inhibition of human MET using gamma-33P-ATP as substrate assessed as enzyme functional activity at 1 uM by scintillation counting relative to untreated control. Also on record: scale not given: the % may be the effect or the level left.
Hepatocyte growth factor receptor, sequence (P08581 whole entry): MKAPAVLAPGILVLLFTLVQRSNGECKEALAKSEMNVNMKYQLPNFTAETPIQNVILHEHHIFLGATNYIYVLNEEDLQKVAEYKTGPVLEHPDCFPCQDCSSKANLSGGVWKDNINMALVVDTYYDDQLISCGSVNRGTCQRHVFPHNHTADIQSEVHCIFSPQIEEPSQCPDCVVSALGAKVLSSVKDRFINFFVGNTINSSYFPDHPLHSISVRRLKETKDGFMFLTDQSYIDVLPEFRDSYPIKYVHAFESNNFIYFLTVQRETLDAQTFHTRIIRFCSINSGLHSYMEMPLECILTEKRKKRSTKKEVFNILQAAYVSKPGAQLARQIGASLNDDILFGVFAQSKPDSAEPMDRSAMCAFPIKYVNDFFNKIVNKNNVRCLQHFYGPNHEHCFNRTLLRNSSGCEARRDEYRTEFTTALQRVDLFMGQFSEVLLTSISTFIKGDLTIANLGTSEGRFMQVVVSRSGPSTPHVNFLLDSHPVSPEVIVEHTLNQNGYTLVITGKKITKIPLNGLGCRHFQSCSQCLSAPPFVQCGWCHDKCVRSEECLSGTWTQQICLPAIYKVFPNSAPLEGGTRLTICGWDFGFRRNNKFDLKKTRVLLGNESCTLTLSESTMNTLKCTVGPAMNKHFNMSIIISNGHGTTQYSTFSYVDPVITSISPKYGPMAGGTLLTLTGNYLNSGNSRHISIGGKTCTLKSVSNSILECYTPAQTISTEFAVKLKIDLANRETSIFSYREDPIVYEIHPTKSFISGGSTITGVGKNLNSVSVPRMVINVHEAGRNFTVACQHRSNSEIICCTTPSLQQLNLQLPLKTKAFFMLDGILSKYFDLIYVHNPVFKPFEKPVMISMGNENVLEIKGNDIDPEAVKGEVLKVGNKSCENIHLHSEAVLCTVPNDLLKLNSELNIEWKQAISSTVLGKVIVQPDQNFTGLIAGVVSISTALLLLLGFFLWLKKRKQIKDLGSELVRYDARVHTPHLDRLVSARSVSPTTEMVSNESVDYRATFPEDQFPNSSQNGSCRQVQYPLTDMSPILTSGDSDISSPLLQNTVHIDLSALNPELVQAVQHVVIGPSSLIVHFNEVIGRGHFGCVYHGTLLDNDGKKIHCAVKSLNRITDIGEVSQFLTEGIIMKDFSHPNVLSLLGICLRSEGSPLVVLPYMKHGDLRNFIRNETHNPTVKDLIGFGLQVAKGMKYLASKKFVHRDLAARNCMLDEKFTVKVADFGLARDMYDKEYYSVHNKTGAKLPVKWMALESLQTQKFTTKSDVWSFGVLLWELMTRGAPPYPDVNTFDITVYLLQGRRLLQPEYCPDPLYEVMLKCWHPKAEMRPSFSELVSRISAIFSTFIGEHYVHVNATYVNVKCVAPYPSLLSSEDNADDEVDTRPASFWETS
The test system of another data set is MDA-MB-435. The experiment in a line: Growth inhibition of human MDA-MB-435 cells after 48 hrs by sulforhodamine B assay. It is filed as functional. The settings on record: MDA-MB-435, 48 h.
For a further data set, the system named is SNB-75. Nature of the data set: Growth inhibition of human SNB75 cells after 48 hrs by sulforhodamine B assay. It counts as functional. The settings on record: SNB-75, 48 h.
The subject of data set [6] is Receptor-type tyrosine-protein kinase FLT3 (Homo sapiens), P36888 [UNDEFINED MUTATION]. The experiment in a line: Binding affinity to human FLT3 ITD mutant at 10 uM incubated for 1 hr by kinase binding assay relative to untreated control.
In another data set the test system is HL-60(TB). Nature of the data set: Cytotoxicity against human HL-60(TB) cells after 48 hrs by sulforhodamine B assay. It counts as cell-based.
The subject of a further data set is RPMI-8226. Nature of the data set: Cytotoxicity against human RPMI8226 cells after 48 hrs by sulforhodamine B assay. It counts as cell-based. The settings on record: rpmi-8226, 48 h.
Another data set has as its system NCI-H322M. Nature of the data set: Cytotoxicity against human NCI-H322M cells after 48 hrs by sulforhodamine B assay. It counts as cell-based.
A further data set concerns U-251. Nature of the data set: Cytotoxicity against human U251 cells after 48 hrs by sulforhodamine B assay. The settings on record: u-251, 48 h. It is filed as cell-based.

As for `O=C(c1cccc(Nc2ncnc3ccccc23)c1)N1CCN(c2ncc(Cc3ccccc3)cn2)CC1`, the median lethal concentration (LC50) (usually the concentration lethal to half of the exposed cells or organisms) was > 100 µM in the data set with OVCAR-3; > 100 µM in the data set on HOP-92; 5.01 µM with IGROV-1; > 100 µM in the data set on K562; 7.94 µM with NCI-H226 [4]; > 100 µM in the data set with NCI-H460. Besides, the LC50 was 5.01 µM in the data set on SF-268; > 100 µM in the data set with EKVX; 6.76 µM with HL-60(TB); 3.89 µM in the data set with RPMI-8226; > 100 µM in the data set on NCI-H322M; > 100 µM with U-251. The Activity is > 50% in [1], > 50% in [3], 100% in data set [5] and > 50% in [6]. In addition, the TGI (as a rule, the concentration giving total growth inhibition) stood at 4.9 µM in the data set with SF-539; 7.08 µM with SN12C; 2.09 µM in the data set on NCI-H226 [2]; 2.75 µM in the data set on COLO 205; 2.14 µM with MDA-MB-435; 5.89 µM with SNB-75.

As to `CCc1cnc(N2CCN(C(=O)c3ccc(CNc4ncnc5ccccc45)cc3)CC2)nc1`, the median lethal concentration (LC50) with OVCAR-3, with HOP-92, in the data set with IGROV-1, in the data set with K562, in the data set on NCI-H226 [4] and in the data set on NCI-H460 was > 100 µM in each case. Further, the 50% lethal concentration (LC50) in the data set with SF-268, with EKVX, in the data set with HL-60(TB), in the data set on RPMI-8226, in the data set with NCI-H322M and in the data set on U-251 was > 100 µM each time. Also, the Activity is > 50% in data set [1], > 50% in [3], 100% in [5] and > 50% in data set [6]. Also, the TGI in the data set with SF-539 is > 100 µM; with SN12C, 59 µM; with NCI-H226 [2], > 100 µM; in the data set on COLO 205 it was 38.2 µM; with MDA-MB-435 it was > 100 µM; in the data set on SNB-75, 58.2 µM.

As to `c1ccc(Cc2cnc(N3CCN(c4ncnc5ccccc45)CC3)nc2)cc1`, the LC50 in the data set on OVCAR-3 was 48.2 µM; in the data set on HOP-92, 62 µM; in the data set with IGROV-1, > 100 µM; with K562 it was > 100 µM; in the data set with NCI-H226 [4], > 100 µM; in the data set with NCI-H460, 55 µM. In addition, the median lethal concentration (LC50) with SF-268 is > 100 µM; in the data set with EKVX, > 100 µM; in the data set with HL-60(TB) it was > 100 µM; with RPMI-8226, 97.3 µM; with NCI-H322M, > 100 µM; with U-251 it was 54.1 µM. Moreover, the Activity turned out to be 4.1% in data set [1], 46% in data set [3], 75% in [5] and 49% in data set [6]. For the same compound, the TGI is 28.5 µM in the data set on SF-539; 24.4 µM in the data set with SN12C; 48.4 µM in the data set on NCI-H226 [2]; > 100 µM with COLO 205; 27.5 µM in the data set on MDA-MB-435; 78.2 µM in the data set with SNB-75.
